From patent publication US12133907B2, “Lipophilic third generation retinoid” (Actera Ingredients, Inc., priority 2021, dated 2024)
Like-named read-outs stand apart in the source and are kept apart here. One block for each molecule: values may come before it.

Key:
[1] = Adapalene oleyl ester dissolved in squalane (premix properties); type: physicochemical; settings: for physical form of the premix in squalane: 20% by weight in squalane
From the text: The adapalene ester can be formulated in a premix composition with a non-polar lipophilic carrier at even higher concentrations of the adapalene ester. Typically, the concentration of the adapalene ester in the premix composition will be at least about 10% by weight, and the weight ratio of adapalene ester to lipophilic carrier is from about 1:9 to about 3:7. The premix composition may in the form of a homogeneous liquid solution or single phase amorphous solid.
Adapalene oleyl ester was dissolved in squalane at a concentration of 20% by weight. […] Rather, the entire premix mass formed a soft amorphous solid paste. The concentrated 20% adapalene oleyl ester in squalane remains a single homogenous soft solid paste with a melting temperature range of 30-35° C. This is a suitable temperature range for use in the manufacturing of finished cosmetics, which are usually manufactured at 30-80° C. This 20% composition can itself melt when in contact with the skin (33° C.). A combination of adapalene oleyl ester with squalane at high concentration, minimum 20%, provides an advantageous skin beauty treatment that can target acne prone skin with 20% or more adapalene ester, which is not possible with highly insoluble pure adapalene.

[2] = cited from earlier work
[3] = Dissolution of lauryl adapalene in MCT oil (caprylic/capric triglyceride) and persistence of the solution; type: physicochemical
Protocol: Approximately 5 grams of lauryl adapalene solids were dissolved in 95 grams of liquid MCT oil (caprylic/capric triglyceride), by heating the mixture to 60° C. for fifteen minutes.

physical form of the premix in squalane [1]: formed a homogenous amorphous solid
physical form of the premix in squalane ([1]; listed as adapalene C18-1 ester): forms a homogenous amorphous solid
concentration dissolved in squalane ([1]; squalane premix): 20 % by weight
SMILES: CCCCCCCC/C=C\CCCCCCCCOC(=O)c1ccc2cc(-c3ccc(OC)c(C45CC6CC(CC(C6)C4)C5)c3)ccc2c1 [Adapalene oleyl ester, adapalene oleyl ester]

SMILES: COc1ccc(-c2ccc3cc(C(=O)O)ccc3c2)cc1C12CC3CC(CC(C3)C1)C2 [Adapalene, 6-(3-(1-adamantyl)-4-methoxyphenyl)-2-naphthoic acid]
solubility in ethanol [2]: sparingly soluble
solubility in oil or water [2]: not oil or water soluble
solubility in oil or water ([2]; listed as adapalene): insoluble in oil or water

time the solution remained in liquid form ([3]; 5% wt/wt solution in MCT oil, room temperature): more than one week
concentration of active agent dissolved in liquid MCT oil ([3]; 5 g solids in 95 g MCT oil, heated to 60° C. for fifteen minutes): 5 % wt/wt
SMILES: CCCCCCCCCCCCOC(=O)c1ccc2cc(-c3ccc(OC)c(C45CC6CC(CC(C6)C4)C5)c3)ccc2c1 [lauryl adapalene]
